In paper PMC8416056, “Aspulvinones Suppress Postprandial Hyperglycemia as Potent α-Glucosidase Inhibitors From Aspergillus terreus ASM-1” (Frontiers in Chemistry, 2021):
Like-named read-outs stand apart in the source and are kept apart here.

Columns and labels:
female C57BL/6J mice [1] = experiment: Oral sucrose tolerance test; assay type: in vivo; conditions: sucrose 2 g/kg BW; for decrease of the AUC (blood glucose, 0–120 min): versus negative control
Description: (§1) Female C57BL/6J mice, 6 weeks old, weighting 16–20 g, were obtained from the Skbex Biotechenology Company Limited (Henan, China). The animals were housed in Experimental Animal Center of Zhoukou Normal University under 12 h light-dark cycle at controlled temperature (22 ± 1°C), and provided with a standard pellet diet and water ad libitum. The mice were adapted to diet and general conditions of vivarium for 1 week before the experiment. After an 16 h fasting, the mice were divided into three groups randomly (eight mice each group). […] Mice were fasted 16 h and then intragastrically (i.g.) administrated the inhibitors, 15 min later, 2 g/kg BW of sucrose or 2 g/kg BW of maltose solution was given i.g. to the animals. Blood samples were taken from the tail vein at 0, 30, 60, and 120 min after sucrose or maltose loading, and blood glucose was measured with Accu-Chek Active glucometer (Roche, Germany). Area under the curve (AUC) over 0–120 min was calculated by the trapezoidal method. All animals were cared under the frame of the China Council on Animal Care and all procedures were approved by the Health Sciences Animal Welfare Committee of Zhoukou Normal University.

α-glucosidase [2] = conditions: ref Dewi et al., 2014; cited from earlier work
α-glucosidase [3] = target: T1, α-glucosidase (Saccharomyces cerevisiae, UniProt P53341); experiment: Enzymatic kinetics of α-glucosidase (Lineweaver–Burk, Dixon and secondary plots); assay type: biochemical; conditions: for Inhibition mode: Lineweaver–Burk plots; for KIS: inhibitor binding with enzyme-substrate complex, vertical intercept (1/Vm) versus inhibitor concentration
T1 construct: purchased
T1 sequence (P53341 whole entry): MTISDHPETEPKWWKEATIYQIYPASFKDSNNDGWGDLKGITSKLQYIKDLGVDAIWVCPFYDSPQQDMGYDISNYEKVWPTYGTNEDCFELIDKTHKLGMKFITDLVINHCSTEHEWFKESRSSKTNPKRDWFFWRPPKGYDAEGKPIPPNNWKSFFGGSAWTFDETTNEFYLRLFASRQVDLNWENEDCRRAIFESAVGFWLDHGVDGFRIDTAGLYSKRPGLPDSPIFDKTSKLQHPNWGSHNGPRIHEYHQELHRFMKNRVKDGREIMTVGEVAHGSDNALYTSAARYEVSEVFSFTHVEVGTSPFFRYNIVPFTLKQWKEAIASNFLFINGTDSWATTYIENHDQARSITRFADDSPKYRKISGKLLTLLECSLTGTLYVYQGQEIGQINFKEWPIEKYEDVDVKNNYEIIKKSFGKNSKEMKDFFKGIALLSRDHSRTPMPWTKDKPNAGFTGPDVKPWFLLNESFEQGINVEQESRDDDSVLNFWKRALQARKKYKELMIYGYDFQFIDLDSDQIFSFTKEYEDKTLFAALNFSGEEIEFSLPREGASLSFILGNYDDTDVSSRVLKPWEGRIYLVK
Description: pNPG with a concentration range of 100–4,000 μM and α-glucosidase were incubated with different concentrations of inhibitor for 10 min, respectively. 20 μl of 1.0 U/ml enzyme solutions were first mixed with 10 μl of different concentrations of inhibitors, then 50 μl PBS solutions were added, and the mixed solutions were incubated at 37°C for 10 min. Subsequently, 20 μl of pNPG solutions (1.25, 2.5, 5, 10 and 20 mM) were added, and the mixed solutions were further incubated at 37°C for 25 min, the absorbance of reaction solution was measured at 405 nm every 3 min. The kinetic parameters, Michaelis–Menten (Km) and maximum velocity (Vmax), were found using Lineweaver–Burk plots to check the mode of α-glucosidase inhibition for compounds 1 and 4. The dissociation constants between inhibitor and enzyme (Ki) were calculated from Dixon plots. Two inhibition constants, KI or KIS, for inhibitor binding with either free or enzyme-substrate complex, were calculated from secondary plots of the slopes of the straight lines ([…]) or vertical intercept (1/Vmax) verse the concentration of inhibitors, respectively ([Jenis et al., 2019]).

[4] = target: T2, α-Glucosidase (EC:3.2.1.20, MAL12) (Saccharomyces cerevisiae, UniProt P53341); experiment: biochemical
T2 construct: purchased
T2 sequence (P53341 whole entry): as above
Description: α-Glucosidase (EC:3.2.1.20, MAL12) from Saccharomyces cerevisiae was dissolved in 0.1 mol/L PBS solutions with a pH of 6.8, and diluted to be a 1.0 U/ml solution. The substrate p-nitrophenyl-[…] (pNPG) was dissolved in PBS to be a 1 mM solution. […] The absorbance of p-nitrophenol was monitored at 405 nm. […] The negative control was performed by adding PBS instead of α-glucosidase, the blank was prepared by adding solvent without tested compounds. The inhibition rate was calculated as Eq. 1: IR% =[(Ac-As)/Ac] × 100% (1) where Ac represents the absorbance of control without sample solution, and As denotes the absorbance of sample.

α-glucosidase [5] = target: T1, α-glucosidase; experiment: Fluorescence quenching analysis; assay type: binding; conditions: for Ksv: quenching constant; for Kq: quenching rate constant, same cell as Ksv; for ∆S: van't Hoff, from 20, 31 and 37 °C (one value per inhibitor, repeated in the grid)
Description: α-Glucosidase (1 μM) was mixed with different concentrations of inhibitors (0–15 μM) at 20, 31, and 37°C, respectively, and the fluorescence spectra of mixed solutions were determined after equilibration for 5 min at an excitation wavelength of 250 nm. Both the excitation and emission slits were set at 10 nm. The quenching rate constant (Kq), binding constant (Ka), the number of the binding sites (n), and thermodynamic parameters enthalpy change (ΔH) and entropy change (ΔS) were calculated according to the Stern-Volmer Eq. 2 and the van’t Hoff Eqs 3–5, which were listed as follows ([Xu et al., 2019]): F0/F = 1 + Ksv[Q] = 1 + Kqτ0[Q] (2) log((F0-F)/F) = logKa+ nlogQ (3) lnKa= (-1/T(ΔH/R)) + ΔS/R (4) ΔG = ΔH-TΔS (5) Where F0 and F represent the fluorescence intensities in the absence or presence of inhibitor, [Q] denote the concentration of inhibitor, τ0 is the constant of the lifetime of fluorophore (10^–8 s) and R is the gas constant of 8.31 J/(mol × K).

α-glucosidase [6] = target: T1, α-glucosidase; experiment: Circular dichroism spectroscopy of α-glucosidase with inhibitor; assay type: binding; parameters: dose or concentration left out as unconfirmed; conditions: after the addition of (molar ratios 20:1 and 40:1), 20°C
Description: The CD measurements were performed in a wavelength range of 190–250 nm at a speed of 60 nm/min. All measurements were carried out at 20°C using 1.0 mm path length quartz cuvette and sodium phosphate buffer (pH 6.8) was considered as a blank. […] All the results were expressed as ellipticity in mill degrees.

female C57BL/6J mice [7] = conditions: 25 mg/kg BW i.g.
Description: as §1, with “Area under the curve (AUC) over 0–120 min was calculated by the trapezoidal method.” left out

[8] = inhibition constant, from Dixon plots
[9] = inhibitor binding with free enzyme, slope (Km/Vm) versus inhibitor concentration
[10] = sample concentration which led to 50% enzyme activity loss, pNPG substrate, pH 6.8, 37°C, read-out: IC50

C[C@H]1O[C@H](O[C@H]2[C@H](O)[C@@H](O)[C@@H](O[C@H]3[C@H](O)[C@@H](O)C(O)O[C@@H]3CO)O[C@@H]2CO)[C@H](O)[C@@H](O)[C@@H]1N[C@H]1C=C(CO)[C@@H](O)[C@H](O)[C@H]1O (stereo partly shown) [Acarbose, reference compound]
decrease of the AUC (blood glucose, 0–120 min) (female C57BL/6J mice [1]; 50 mg/kg BW i.g.): 11.8%

O=C1O/C(=C\c2ccc(O)cc2)C(O)=C1c1ccc(O)cc1 [Aspulvinone E]
IC50 (α-glucosidase [2]): 2.7 µM

CC(C)=CCc1cc(/C=C2\OC(=O)C(c3cc4c(c(CC=C(C)C)c3)OC(C)(C)C=C4)=C2O)ccc1O [Compound 1, Aspulvinone V]
Inhibition mode (α-glucosidase [3]): mixed-type
Ki (α-glucosidase [3]; [8]): 6.6 µM
KIS (α-glucosidase [3]): 8.23 µM
Ki (α-glucosidase [3]; [9]): 3.15 µM
IC50 [4, 10]: 2.2 ± 0.4 µM
∆G (α-glucosidase [5]; 31 °C): -3.32 kcal/mol
∆G (α-glucosidase [5]; 37 °C): -2.94 kcal/mol
binding constants (Ka), order of magnitude (α-glucosidase [5]; at the three temperatures): ~10^5 L/mol
Kd (α-glucosidase [5]; binding constant, 20 °C, read-out: Ka (converted)): 9.09 µM
Kd (α-glucosidase [5]; binding constant, 31 °C, read-out: Ka (converted)): 3.27 µM
Kd (α-glucosidase [5]; binding constant, 37 °C, read-out: Ka (converted)): 1.79 µM
Ksv (α-glucosidase [5]; 20 °C): 53500 L/mol
Ksv (α-glucosidase [5]; 31 °C): 78700 L/mol
Ksv (α-glucosidase [5]; 37 °C): 58100 L/mol
Kq (α-glucosidase [5]; 20 °C): 5.35e+12 M⁻¹ s⁻¹
Kq (α-glucosidase [5]; 31 °C): 7.87e+12 M⁻¹ s⁻¹
Kq (α-glucosidase [5]; 37 °C): 5.81e+12 M⁻¹ s⁻¹
∆S (α-glucosidase [5]): 148.2 J/mol/K
change of α-glucosidase CD spectrum (negative peaks at 209 and 222 nm) (α-glucosidase [6]): loss of the α-helix structure

CC(C)=CCc1cc(C2=C(O)C(=Cc3ccc4c(c3)CC(C(C)(C)O)O4)OC2=O)ccc1O (stereo not shown) [Compound 2, Aspulvinone W]
IC50 [4]: 32 ± 5.8 µM

CC1(C)CCc2cc(C3=C(O)C(=Cc4ccc5c(c4)CC(C(C)(C)O)O5)OC3=O)ccc2O1 (stereo not shown) [Compound 3, Aspulvinone X]
IC50 [4]: 38.6 ± 5.2 µM

CC(C)=CCc1cc(/C=C2\OC(=O)C(c3ccc(O)c(CC=C(C)C)c3)=C2O)ccc1O [Compound 4, aspulvinone H]
Inhibition mode (α-glucosidase [3]): mixed-type
Ki (α-glucosidase [3]; [8]): 6.58 µM
KIS (α-glucosidase [3]): 6.62 µM
Ki (α-glucosidase [3]; [9]): 4.7 µM
IC50 [4, 10]: 4.6 ± 1.3 µM
blood glucose rise at 30 and 60 min (female C57BL/6J mice [1]; 25 mg/kg BW i.g., compared to negative control group): significantly suppressed
decrease of the AUC (blood glucose, 0–120 min) (female C57BL/6J mice [1]; 25 mg/kg BW i.g.): 13.2%
∆G (α-glucosidase [5]; 31 °C): -2.99 kcal/mol
∆G (α-glucosidase [5]; 37 °C): -2.37 kcal/mol
Kd (α-glucosidase [5]; Ka, binding constant, 20 °C): 34.5 µM
Kd (α-glucosidase [5]; Ka, binding constant, 31 °C): 12.7 µM
Kd (α-glucosidase [5]; Ka, binding constant, 37 °C): 4.31 µM
Kd (α-glucosidase [5]; binding constants (Ka), order of magnitude, at the three temperatures): ~100 µM
Ksv (α-glucosidase [5]; 20 °C): 56900 L/mol
Ksv (α-glucosidase [5]; 31 °C): 55300 L/mol
Ksv (α-glucosidase [5]; 37 °C): 60200 L/mol
Kq (α-glucosidase [5]; 20 °C): 5.69e+12 M⁻¹ s⁻¹
Kq (α-glucosidase [5]; 31 °C): 5.53e+12 M⁻¹ s⁻¹
Kq (α-glucosidase [5]; 37 °C): 6.02e+12 M⁻¹ s⁻¹
∆S (α-glucosidase [5]): 240.1 J/mol/K
postprandial blood glucose peak (female C57BL/6J mice [7]; Figure 6C (maltose), versus the negative control group): significant decrease
reduction of the AUC for postprandial plasma glucose in 2 h (female C57BL/6J mice [7]; Figure 6D (maltose 2 g/kg BW), text prints 'sucrose tolerance test'): 19.7%
change of α-glucosidase CD spectrum (negative peaks at 209 and 222 nm) (α-glucosidase [6]): loss of the α-helix structure

CC(C)(O)[C@H]1Cc2cc(/C=C3\OC(=O)C(c4ccc5c(c4)C[C@H](C(C)(C)O)O5)=C3O)ccc2O1 [Compound 5, aspulvinone J-CR]
IC50 [4]: 44.3 ± 8.9 µM

CC(C)=CCc1cc(/C=C2\OC(=O)C(c3cc(CC=C(C)C)c(O)c(CC=C(C)C)c3)=C2O)ccc1O [Compound 6, aspulvinone R]
IC50 [4]: 10.8 ± 2.3 µM

O=C1O/C(=C/c2ccc(O)cc2)C(O)=C1c1ccc(O)cc1 [isoaspulvinone E]
IC50 (α-glucosidase [2]): 8.92 µM
